Test results as given in BindingDB's records for doi:10.1021/acs.jmedchem.5b00261 (Genentech, 2015).

Test: Inhibition of LRRK2 G2019S mutant-induced neuronal toxicity in human cortical neurons

Question: Which EC50 does the source give for COc1cc(N2CCOCC2)ccc1Nc1ncc(F)c(Nc2ccccc2NS(C)(=O)=O)n1 here?
Answer: 4 nM
